Patent publication US7569690B2, “Process for producing oxycarbonyl-substituted piperazine derivative” (Toray Fine Chemicals Co., Ltd., priority 2002, dated 2009)

Tests used:
[1] = cited from earlier work
[2] = Thermal stability of the oxycarbonyl-substituted piperazine derivative (standing at temperature, liquid chromatography purity); type: physicochemical
Description: It was confirmed that the stability of the compound is greatly affected by the temperature and the heating time period.
It was noticed that when, for example, 1-benzyloxycarbonyl-3-methylpiperazine with a purity of 99.3 liquid chromatography area % was allowed to stand at 120° C., 160° C. or 200° C. for 12 hours, their liquid chromatography purity declined to 99.0 liquid chromatography area %, 95.6 liquid chromatography area % and 59.7 liquid chromatography area % respectively, and that the liquid chromatography purity of 1-benzyl-4-benzyloxycarbonyl-2-methylpiperazine corresponding to the compound represented by the general formula (7) rose to 0.2 liquid chromatography area %, 3.2 liquid chromatography area % and 30.7 liquid chromatography area % respectively.
Furthermore, when the compound was allowed to stand at 160° C. for 1 hour, the purity was 98.8 liquid chromatography area %, and it can be seen that the decomposition rate was small compared with the case of 12 hours.
For measuring the contents of the impurities contained in the oxycarbonyl-substituted piperazine derivative represented by the general formula (2), liquid chromatography is used. The analytical column for liquid chromatography used for analysis is a column using an octadecyl -based composition as a packing material. Particularly the use of Capcellpak C18, 120 angstroms, 5 μm, 4.6 mm×150 mm (Shiseido) is desirable.
The mobile phase is 5 mM sodium dodecyl sulfate (hereinafter abbreviated as SDS) aqueous solution (pH 2.5, phosphoric acid)/acetonitrile, and a gradient method for changing the composition with the lapse of time is used for analysis. That is, the acetonitrile content in the mobile phase is kept at 31 vol % from the start of analysis to 15 minutes later, and the acetonitrile content is then increased at a constant rate up to 45 vol %, taking 10 minutes, being kept at 45 vol % from 25 minutes later to 40 minutes later. The detector used is a UV measuring instrument, and the detection wavelength is 210 nm. The detection wavelength is very important, and if the detection wavelength is changed, the analyzed value may change. The reason is that the maximum wavelength of UV absorption changes depending on the compound. In this system, it is desirable that the wavelength is from 210 to 230 nm at which the ratios of the absorption sensitivity of the compound represented by the general formula (2) to the absorption sensitivities the compounds represented by the general formulae (5) to (8) are from 0.6 to 1.5. Analysis is made at a column oven temperature of 40° C. In the case where analysis is made under the above-mentioned analytical conditions, the retention times of 1-benzyloxycarbonyl-3-methylpiperazine and the impurities corresponding to the general formulae (5) to (8), i.e., 1,4-bis(carbobenzyloxy)-2-methylpiperazine, 1-benzyl-3-methylpiperazine, 4-benzyloxycarbonyl-1-benzyl-2-methylpiperazine and benzyl alcohol were 23.1 minutes, 31.0 minutes, 31.0 minutes, 30.0 minutes and 2.7 minutes respectively. The values of their area percentages can be used to obtain the impurity contents.

| Liquid chromatography purity of decomposition product 1-benzyl-4-benzyloxycarbonyl-2-methylpiperazine after standing ([2]; 120° C. for 12 hours) | Liquid chromatography purity after standing ([2]; 120° C. for 12 hours, starting purity 99.3 liquid chromatography area %) | Liquid chromatography purity after standing ([2]; 160° C. for 1 hour) | Liquid chromatography purity of decomposition product 1-benzyl-4-benzyloxycarbonyl-2-methylpiperazine after standing ([2]; 160° C. for 12 hours) | Liquid chromatography purity after standing ([2]; 160° C. for 12 hours, starting purity 99.3 liquid chromatography area %) | Liquid chromatography purity of decomposition product 1-benzyl-4-benzyloxycarbonyl-2-methylpiperazine after standing ([2]; 200° C. for 12 hours) | Liquid chromatography purity after standing ([2]; 200° C. for 12 hours, starting purity 99.3 liquid chromatography area %) | Compound | pKa [1] |
| --- | --- | --- | --- | --- | --- | --- | --- | --- |
|  |  |  |  |  |  |  | c1cn[nH]c1 [pyrazole] | 2.5 |
|  |  |  |  |  |  |  | COc1ccccn1 [2-methoxypyridine] | 6.62 |
| 0.2 liquid chromatography area % | 99.0 liquid chromatography area % | 98.8 liquid chromatography area % | 3.2 liquid chromatography area % | 95.6 liquid chromatography area % | 30.7 liquid chromatography area % | 59.7 liquid chromatography area % | CC1CN(C(=O)OCc2ccccc2)CCN1 (stereo not drawn) [1-benzyloxycarbonyl-3-methylpiperazine] |  |
